This test addresses T1, human TRPV3 (Homo sapiens, UniProt Q8NET8).
T1 construct: expressed in transfected cells
T1 sequence (Q8NET8 1-790): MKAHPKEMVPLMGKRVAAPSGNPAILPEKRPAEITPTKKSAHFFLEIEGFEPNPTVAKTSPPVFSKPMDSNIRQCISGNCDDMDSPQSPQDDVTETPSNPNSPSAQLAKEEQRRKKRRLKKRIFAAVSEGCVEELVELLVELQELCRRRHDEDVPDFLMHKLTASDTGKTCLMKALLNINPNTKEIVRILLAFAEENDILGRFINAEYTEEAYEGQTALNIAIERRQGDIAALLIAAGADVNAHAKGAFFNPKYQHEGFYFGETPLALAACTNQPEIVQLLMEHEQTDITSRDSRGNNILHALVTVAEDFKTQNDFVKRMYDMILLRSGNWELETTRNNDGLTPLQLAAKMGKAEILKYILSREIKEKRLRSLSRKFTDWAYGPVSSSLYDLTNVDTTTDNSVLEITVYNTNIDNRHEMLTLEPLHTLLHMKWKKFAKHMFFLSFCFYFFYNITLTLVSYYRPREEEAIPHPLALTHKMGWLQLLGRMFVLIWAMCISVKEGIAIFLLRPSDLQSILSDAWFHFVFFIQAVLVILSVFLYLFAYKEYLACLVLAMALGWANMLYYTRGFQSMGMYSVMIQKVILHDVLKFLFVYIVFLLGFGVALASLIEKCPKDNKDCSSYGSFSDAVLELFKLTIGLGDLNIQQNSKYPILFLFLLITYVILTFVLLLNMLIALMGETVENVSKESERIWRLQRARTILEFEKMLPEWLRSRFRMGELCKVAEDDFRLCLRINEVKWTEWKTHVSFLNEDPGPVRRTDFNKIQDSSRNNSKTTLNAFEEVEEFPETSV
As to the kind of experiment: In vitro antagonism of recombinant human TRPV3 activation (FLIPR Tetra calcium assay). Particulars: HEK293 cells stably expressing human TRPV3, agonist 2-APB at 80 μM. The format is cell-based. As to the method:
Test compounds were evaluated for ability to antagonize the activation of recombinant human TRPV3 using FLIPR® Tetra cellular screening. Specifically, on the day prior to the experiment recombinant HEK293 cells that stably express human TRPV3 were removed from tissue culture flasks and plated in growth medium at 20,000 cells/well into Poly-d-lysine coated black/clear 384-well Plate (Corning, 3845) using a Multidrop® dispenser (ThermoScientific, Waltham, Mass.). Prior to the start of the assay, the medium was removed by aspiration, and cells were loaded with 30 μL no-wash FLIPR® Calcium-4 dye (λEX=470-495 nm, λEM=515-575 nm; Molecular Devices, Sunnyvale, Calif.). The cells were then incubated for 90-120 minutes in the dark prior to addition of the test compound.
A double-addition protocol was used. The test compound (i.e., the TRPV3 antagonist) was added at the 10 second time point, followed by the addition of a TRPV3 agonist three minutes later. Each test compound evaluated was first dissolved in DMSO to prepare a 10 mM stock solution. A solution (5×) of the test compound was then prepared in DPBS (Dulbecco's Phosphate Buffered Saline) and 10 μl, of that solution was added to the cells at a delivery rate of 40 μL/sec. The TRPV3 agonist used to activate human TRPV3 expressed by the […] was 2-aminoethoxy-diphenyl borate (2-APB; Tocris Cookson, Ellisville, Mo.) at 80 μM. Final assay volume was 50 μl, Total length of an experimental run was 10 minutes.
Changes in fluorescence were measured over time using the FLIPR® instrument. The intensity of the fluorescence was captured and digitally transferred to an interfaced computer. The maximum response minus minimum response was calculated and expressed as the percentage of the maximum 2-APB response in the absence of antagonist. The concentration of 2-APB corresponds to its EC80.
Table 1 reports the IC50 values measured for the test compounds as human TRPV3 antagonists. […] Actual measured values are shown parenthetically after the reported range. In most cases, the values reported are average values from at least two runs (i.e., n≧2).

[1] abbreviates: actual measured value shown parenthetically, in most cases average of at least two runs, read-out: IC50.
Where [2] appears, read: reported range, read-out: IC50 (range class).

Each structure is given as a SMILES string. Like-named read-outs stand apart in the source and are kept apart here. Some results are limits rather than exact numbers.

Broadly, the IC50 is the concentration needed to halve the response being measured. As for `OC(c1ccccn1)C1(c2ccc(C(F)(F)F)cc2)CCOCC1` (stereo not shown) [Example 65, pyridin-2-yl{4-[4-(trifluoromethyl)phenyl]tetrahydro-2H-pyran-4-yl}-methanol], the IC50 under setting [1] turned out to be 2.26 µM.

`OC(c1ccccn1)C1(c2cccc(F)c2)CCOCC1` (stereo not shown) [Example 61, [4-(3-fluorophenyl)tetrahydro-2H-pyran-4-yl](pyridin-2-yl)methanol]: the IC50 under setting [1] was found to be 7.54 µM.

Regarding `OC(CC1(c2cccc(F)c2)CCC1)c1ccccn1` (stereo not shown) [Example 71, 2-[1-(3-fluorophenyl)cyclobutyl]-1-(pyridin-2-yl)ethanol], the IC50 under setting [1] worked out at 2.13 µM.

As for `OC(c1ccccn1)C1(c2cc(F)cc(C(F)(F)F)c2)CCC1` (stereo not shown) [Example 14, {1-[3-fluoro-5-(trifluoromethyl)phenyl]cyclobutyl}(pyridin-2-yl)methanol], the IC50 was greater than 20 µM under setting [1] and greater than 20 µM under setting [2].

For the molecule `OC(c1ccccn1)C1(c2cccc(Cl)c2)COC1` (stereo not shown) [Example 86, [3-(3-chlorophenyl)oxetan-3-yl](pyridin-2-yl)methanol], the IC50 under setting [1] came out at 3.56 µM.

Take `COc1ccc(C2(C(O)c3ccccn3)CCOC2)cc1` (stereo not shown) [Example 83, [3-(4-methoxyphenyl)tetrahydrofuran-3-yl](pyridin-2-yl)methanol]: the IC50 is greater than 20 µM under setting [1] and greater than 20 µM under setting [2].

Consider `N[C@H]1CCC[C@@H]1[C@H](O)C1(c2ccc(Cl)c(Cl)c2)CCC1` [Example 219, (S)-[(1S,2S)-2-aminocyclopentyl][1-(3,4-dichlorophenyl)cyclobutyl]-methanol], for which, under setting [1], the IC50 stood at 3.07 µM.

As to `OC(c1ccccn1)C1(c2ccc(F)cc2)CCOCC1` (stereo not shown) [Example 62, [4-(4-fluorophenyl)tetrahydro-2H-pyran-4-yl](pyridin-2-yl)methanol], the IC50 under setting [1] was 11.8 µM.

As to `CC(c1ccc(C(F)(F)F)cc1)C1(C(O)c2ccccn2)CCC1` (stereo not shown) [Example 53, pyridin-2-yl(1-{1-[4-(trifluoromethyl)phenyl]ethyl}cyclobutyl)methanol], the IC50 under setting [1] was 1.75 µM.

In the case of `OC(c1ncccn1)C1(c2ccc(F)c(F)c2)CCC1` (stereo not shown) [Example 35, [1-(3,4-difluorophenyl)cyclobutyl](pyrimidin-2-yl)methanol], the IC50 under setting [1] stood at 10.2 µM.

Turning to `OC(c1ccccn1)C1(c2ccccc2)CCOCC1` (stereo not shown) [Example 60, (4-phenyltetrahydro-2H-pyran-4-yl)(pyridin-2-yl)methanol], under setting [1], the IC50 worked out at 7.55 µM.

For `NC1CCCC1C(O)C1(c2ccc(Cl)c(Cl)c2)CCC1` (stereo not shown) [Example 215, (2-aminocyclopentyl)[1-(3,4-dichlorophenyl)cyclobutyl]methanol], under setting [1], the IC50 turned out to be 0.77 µM.

For the molecule `OC(c1ncccn1)C1(c2cccc(F)c2)CCC1` (stereo not shown) [Example 33, [1-(3-fluorophenyl)cyclobutyl](pyrimidin-2-yl)methanol], under setting [1], the IC50 was 8.5 µM.

With `NC1CCCCC1C(O)C1(c2ccc(OC(F)(F)F)cc2)CCC1` (stereo not shown) [Example 209, (2-aminocyclohexyl) {1-[4-(trifluoromethoxy)phenyl]cyclobutyl}methanol], the concentration for half-maximal inhibition (IC50) under setting [1] was found to be 4.6 µM.

Regarding `OC(c1ncccn1)C1(c2ccc(OC(F)(F)F)cc2)CCC1` (stereo not shown) [Example 31, pyrimidin-2-yl{1-[4-(trifluoromethoxy)phenyl]cyclobutyl}methanol], under setting [1], the IC50 is 3.08 µM.

With `CS(=O)(=O)c1ccc(C2(C(O)c3ccccn3)CCC2)cc1` (stereo not shown) [Example 16, {1-[4-(methylsulfonyl)phenyl]cyclobutyl}(pyridin-2-yl)methanol], the IC50 by setting is: under setting [1], greater than 20 µM; under setting [2], greater than 20 µM.

On to `OC(c1ccccn1)C1(c2ccc(Cl)cc2)CCOCC1` (stereo not shown) [Example 64, [4-(4-chlorophenyl)tetrahydro-2H-pyran-4-yl](pyridin-2-yl)methanol], for which the IC50 under setting [1] came out at 2.34 µM.

Regarding `OC(CC1(c2ccccc2)CCC1)c1ccccn1` (stereo not shown) [Example 68, 2-(1-phenylcyclobutyl)-1-(pyridin-2-yl)ethanol], the IC50 under setting [1] amounted to 3.68 µM.

Turning to `CC1(O)CC(c2ccnc(C(F)(F)F)c2)(C(O)c2ccccn2)C1` (single isomer, unassigned) [Example 302], the IC50 under setting [1] stood at 0.95 µM.

On to `OC(c1ccccn1)C1(C2=CCOCC2)CCC1` (stereo not shown) [Example 252, [1-(3,6-dihydro-2H-pyran-4-yl)cyclobutyl](pyridin-2-yl)methanol], for which the IC50 reads like this: under setting [1], greater than 20 µM; under setting [2], greater than 20 µM.

Turning to `OC(c1ccccn1)C1(c2ccc(C(F)(F)F)cc2)CCOC1` (stereo not shown) [Example 78, pyridin-2-yl{3-[4-(trifluoromethyl)phenyl]tetrahydrofuran-3-yl}methanol], the IC50 under setting [1] amounted to 3.56 µM.

For `OC(C1CCCc2cccnc21)C1(c2ccccc2C(F)(F)F)CCC1` (stereo not drawn) [Example 196, (syn)-5,6,7,8-tetrahydroquinolin-8-yl{1-[2-(trifluoromethyl)phenyl]-cyclobutyl}methanol], the IC50 is greater than 20 µM under setting [1] and greater than 20 µM under setting [2].

For `CC(c1cccc(Cl)c1)C1(C(O)c2ccccn2)CCC1` (stereo not shown) [Example 44, {1-[1-(3-chlorophenyl)ethyl]cyclobutyl}(pyridin-2-yl)methanol], under setting [1], the IC50 stood at 8 µM.

`OC(CC1(c2ccc(F)cc2)CCC1)c1ccccn1` (stereo not shown) [Example 70, 2-[1-(4-fluorophenyl)cyclobutyl]-1-(pyridin-2-yl)ethanol]: under setting [1], the IC50 came to 12 µM.

Regarding `N[C@H]1CCC[C@H]1[C@@H](O)C1(c2ccc(Cl)c(Cl)c2)CCC1` [Example 218, (R)-[(1R,2S)-2-aminocyclopentyl][1-(3,4-dichlorophenyl)cyclobutyl]-methanol], the IC50 under setting [1] amounted to 1.73 µM.

In the case of `OC(CC1(c2ccc(Cl)c(Cl)c2)CCC1)c1ccccn1` (stereo not shown) [Example 73, 2-[1-(3,4-dichlorophenyl)cyclobutyl]-1-(pyridin-2-yl)ethanol], under setting [1], the IC50 came out at 1.94 µM.

Regarding `OC(CC1(c2cccc(Cl)c2)CCC1)c1ccccn1` (stereo not shown) [Example 72, 2-[1-(3-chlorophenyl)cyclobutyl]-1-(pyridin-2-yl)ethanol], the IC50 under setting [1] amounted to 2.24 µM.

Turning to `OC(c1ccccn1)C1(c2ccc(-c3ccccc3)cc2)CCC1` (stereo not shown) [Example 22, [1-(1,1′-biphenyl-4-yl)cyclobutyl](pyridin-2-yl)methanol], the IC50 was greater than 20 µM under setting [1] and greater than 20 µM under setting [2].

Take `OC(c1ccccn1)C1(c2cccc(OC(F)(F)F)c2)CCOC1` (stereo not shown) [Example 80, pyridin-2-yl{3-[3-(trifluoromethoxy)phenyl]tetrahydrofuran-3-yl}methanol]: the IC50 under setting [1] is 1.78 µM.

Consider `CC(c1ccccc1)C1(C(O)c2ccccn2)CCC1` (stereo not shown) [Example 51, [1-(1-phenylethyl)cyclobutyl](pyridin-2-yl)methanol], for which the IC50 under setting [1] was determined as 8.25 µM.

`OC(c1ncccn1)C1(c2ccccc2F)CCC1` (stereo not shown) [Example 32, [1-(2-fluorophenyl)cyclobutyl](pyrimidin-2-yl)methanol]: the IC50 by setting is: under setting [1], greater than 20 µM; under setting [2], greater than 20 µM.

As for `OC(c1ccccn1)C1(c2ccc(F)c(F)c2)CCOCC1` (stereo not shown) [Example 63, [4-(3,4-difluorophenyl)tetrahydro-2H-pyran-4-yl](pyridin-2-yl)methanol], the IC50 under setting [1] came out at 7.17 µM.

In the case of `COc1ccc(C2(C(O)c3ccccn3)CCOC2)cc1OC` (stereo not shown) [Example 84, [3-(3,4-dimethoxyphenyl)tetrahydrofuran-3-yl](pyridin-2-yl)methanol], the half-inhibitory concentration (IC50) reads like this: under setting [1], greater than 20 µM; under setting [2], greater than 20 µM.

`N#Cc1cccc(C2(C(O)c3ccccn3)CCOC2)c1` (stereo not shown) [Example 81, 3-{3-[hydroxy(pyridin-2-yl)methyl]tetrahydrofuran-3-yl}benzonitrile]: the IC50 reads like this: under setting [1], greater than 20 µM; under setting [2], greater than 20 µM.

The record behind these values is patent US8772499B2, “TRPV3 modulators” (AbbVie Inc., priority 2011, dated 2014).
